Consider 17 compounds from US12570642B2, “GLP-IR modulating compounds” (Gilead Sciences, Inc., priority 2021, dated 2026).

Sequence of GLP-1R (P43220 24-463): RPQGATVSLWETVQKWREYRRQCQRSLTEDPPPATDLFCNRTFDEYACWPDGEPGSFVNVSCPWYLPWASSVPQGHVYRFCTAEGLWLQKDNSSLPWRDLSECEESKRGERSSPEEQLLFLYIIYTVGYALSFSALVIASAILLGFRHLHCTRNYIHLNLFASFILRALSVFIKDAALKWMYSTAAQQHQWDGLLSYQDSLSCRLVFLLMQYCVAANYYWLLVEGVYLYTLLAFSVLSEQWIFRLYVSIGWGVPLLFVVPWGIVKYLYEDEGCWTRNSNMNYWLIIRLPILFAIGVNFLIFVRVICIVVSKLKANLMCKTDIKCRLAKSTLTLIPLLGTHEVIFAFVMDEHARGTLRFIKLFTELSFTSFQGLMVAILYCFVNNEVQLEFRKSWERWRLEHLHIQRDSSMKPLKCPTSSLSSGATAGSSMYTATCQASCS

For this assay, the target named is GLP-1R (Homo sapiens, UniProt P43220). Kind of assay: GLP-1R Activation - cAMP Assay. Format: cell-based. Particulars: cAMP increase in CHO cells stably expressing GLP-1R; each compound run on one of the two cAMP assays (Assay 1 or Assay 2, not specified). The procedure, abridged:
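CHO cells stably expressing GLP-1R, plated at 1,000 cells/well overnight, then equilibrated 1 h in HBSS with 20 mM Hepes and 0.1% BSA. Agonist added as 10-point dose response for 30 min at 37 °C. cAMP measured by HTRF (Cisbio Gs Dynamic kit); EC50 from sigmoidal fit.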
For the compound `CC1(C)COC[C@H]1n1c(Cc2cc(F)c(-c3cccc(OCc4ccc(Cl)cc4)n3)cc2F)nc2ccc(C(=O)O)nc21` [Example 438, (S)-2-(4-(6-((4-chlorobenzyl)oxy)pyridin-2-yl)-2,5-difluorobenzyl)-3-(4,4-dimethyltetrahydrofuran-3-yl)-3H-imidazo[4,5-b]pyridine-5-carboxylic acid], the EC50 was found to be 0.519 nM.

Compound `CC1(C)COC[C@H]1n1c(Cc2cc(F)c(-c3cccc(OCc4ccc(C#N)cc4F)n3)cc2F)nc2ccc(C(=O)O)nc21` [Example 439, (S)-2-(4-(6-((4-cyano-2-fluorobenzyl)oxy)pyridin-2-yl)-2,5-difluorobenzyl)-3-(4,4-dimethyltetrahydrofuran-3-yl)-3H-imidazo[4,5-b]pyridine-5-carboxylic acid] gave an EC50 of 0.171 nM. With `CC1(C)COC[C@H]1n1c(Cc2cc(F)c(-c3cccc(OCc4ccc(C#N)cc4)n3)cc2F)nc2ccc(C(=O)O)nc21` [Example 440, (S)-2-(4-(6-((4-cyanobenzyl)oxy)pyridin-2-yl)-2,5-difluorobenzyl)-3-(4,4-dimethyltetrahydrofuran-3-yl)-3H-imidazo[4,5-b]pyridine-5-carboxylic acid], the EC50 was found to be 0.956 nM.

As to `CC1(C)COC[C@H]1n1c(Cc2cc(F)c(-c3ccc(F)c(OCc4ccc(Cl)cc4)n3)cc2F)nc2c(Cl)cc(C(=O)O)cc21` [Example 441, (S)-4-chloro-2-(4-(6-((4-chlorobenzyl)oxy)-5-fluoropyridin-2-yl)-2,5-difluorobenzyl)-1-(4,4-dimethyltetrahydrofuran-3-yl)-1H-benzo[d]imidazole-6-carboxylic acid], the midpoint of the response, the EC50, lay at 0.722 nM. Compound `Cn1cc(-c2ccc(COc3cccc(-c4cc(F)c(Cc5nc6ccc(C(=O)O)cc6n5[C@@H]5COCC5(C)C)cc4F)n3)c(F)c2)nn1` [Example 442, (S)-2-(2,5-difluoro-4-(6-((2-fluoro-4-(1-methyl-1H-1,2,3-triazol-4-yl)benzyl)oxy)pyridin-2-yl)benzyl)-1-(4,4-dimethyltetrahydrofuran-3-yl)-1H-benzo[d]imidazole-6-carboxylic acid] had an EC50 of 0.042 nM.

`CC1(C)COC[C@H]1n1c(Cc2cc(F)c(-c3cccc(OCc4ccc(-c5cnn(C(F)F)c5)cc4F)n3)cc2F)nc2ccc(C(=O)O)cc21` [Example 443, (S)-2-(4-(6-((4-(1-(difluoromethyl)-1H-pyrazol-4-yl)-2-fluorobenzyl)oxy)pyridin-2-yl)-2,5-difluorobenzyl)-1-(4,4-dimethyltetrahydrofuran-3-yl)-1H-benzo[d]imidazole-6-carboxylic acid] gave an EC50 of 0.21 nM. For `Cc1ncc(-c2ccc(COc3cccc(-c4cc(F)c(Cc5nc6ccc(C(=O)O)cc6n5[C@@H]5COCC5(C)C)cc4F)n3)c(F)c2)s1` [Example 444, (S)-2-(2,5-difluoro-4-(6-((2-fluoro-4-(2-methylthiazol-5-yl)benzyl)oxy)pyridin-2-yl)benzyl)-1-(4,4-dimethyltetrahydrofuran-3-yl)-1H-benzo[d]imidazole-6-carboxylic acid], the response was half-maximal at 0.365 nM (EC50).

In turn, `Cc1ncc(-c2ccc(COc3cccc(-c4cc(F)c(Cc5nc6ccc(C(=O)O)cc6n5[C@@H]5COCC5(C)C)cc4F)n3)c(F)c2)o1` [Example 445, (S)-2-(2,5-difluoro-4-(6-((2-fluoro-4-(2-methyloxazol-5-yl)benzyl)oxy)pyridin-2-yl)benzyl)-1-(4,4-dimethyltetrahydrofuran-3-yl)-1H-benzo[d]imidazole-6-carboxylic acid] displayed an EC50 of 0.279 nM.

Consider `CC1(C)COC[C@H]1n1c(Cc2cc(F)c(-c3cccc(OCc4ccccc4C#N)n3)cc2F)nc2ccc(C(=O)O)cc21` [Example 446, (S)-2-(4-(6-((2-cyanobenzyl)oxy)pyridin-2-yl)-2,5-difluorobenzyl)-1-(4,4-dimethyltetrahydrofuran-3-yl)-1H-benzo[d]imidazole-6-carboxylic acid], for which the EC50 came to 0.2 nM.

In turn, `CC1(C)COC[C@H]1n1c(Cc2cc(F)c(-c3cc(C(F)F)cc(OCc4ccc(Cl)cc4F)n3)cc2F)nc2ccc(C(=O)O)cc21` [Example 447, (S)-2-(4-(6-((4-chloro-2-fluorobenzyl)oxy)-4-(difluoromethyl)pyridin-2-yl)-2,5-difluorobenzyl)-1-(4,4-dimethyltetrahydrofuran-3-yl)-1H-benzo[d]imidazole-6-carboxylic acid] yielded an EC50 of 1.39 nM. The value for `CC1(C)COC[C@H]1n1c(Cc2cc(F)c(-c3cccc(OCc4ccc(-n5cncn5)cc4)n3)cc2F)nc2ccc(C(=O)O)cc21` [Example 448, (S)-2-(4-(6-((4-(1H-1,2,4-triazol-1-yl)benzyl)oxy)pyridin-2-yl)-2,5-difluorobenzyl)-1-(4,4-dimethyltetrahydrofuran-3-yl)-1H-benzo[d]imidazole-6-carboxylic acid] was 0.352 nM; that for `CC1(C)COC[C@H]1n1c(Cc2cc(F)c(-c3cccc(OCc4ccc(Cl)cc4C#N)n3)cc2F)nc2ccc(C(=O)O)cc21` [Example 449, (S)-2-(4-(6-((4-chloro-2-cyanobenzyl)oxy)pyridin-2-yl)-2,5-difluorobenzyl)-1-(4,4-dimethyltetrahydrofuran-3-yl)-1H-benzo[d]imidazole-6-carboxylic acid] was 0.021 nM. Under `Cc1cc(COc2cccc(-c3cc(F)c(Cc4nc5ccc(C(=O)O)cc5n4[C@@H]4COCC4(C)C)cc3F)n2)c(F)cc1Cl` [Example 450, (S)-2-(4-(6-((4-chloro-2-fluoro-5-methylbenzyl)oxy)pyridin-2-yl)-2,5-difluorobenzyl)-1-(4,4-dimethyltetrahydrofuran-3-yl)-1H-benzo[d]imidazole-6-carboxylic acid] stands 1.04 nM.

Consider `CC1(C)COC[C@H]1n1c(Cc2cc(F)c(-c3cccc(OCc4ccc(F)c(F)c4F)n3)cc2F)nc2ccc(C(=O)O)cc21` [Example 451, (S)-2-(2,5-difluoro-4-(6-((2,3,4-trifluorobenzyl)oxy)pyridin-2-yl)benzyl)-1-(4,4-dimethyltetrahydrofuran-3-yl)-1H-benzo[d]imidazole-6-carboxylic acid], for which the EC50 is 0.621 nM. With `Cc1ccc(COc2cccc(-c3cc(F)c(Cc4nc5ccc(C(=O)O)cc5n4[C@@H]4COCC4(C)C)cc3F)n2)cc1Cl` [Example 452, (S)-2-(4-(6-((3-chloro-4-methylbenzyl)oxy)pyridin-2-yl)-2,5-difluorobenzyl)-1-(4,4-dimethyltetrahydrofuran-3-yl)-1H-benzo[d]imidazole-6-carboxylic acid], the EC50 was found to be 0.564 nM. In the case of `CC1(C)COC[C@H]1n1c(Cc2cc(F)c(-c3cccc(OCc4c(F)cc(Cl)cc4F)n3)cc2F)nc2ccc(C(=O)O)cc21` [Example 453, (S)-2-(4-(6-((4-chloro-2,6-difluorobenzyl)oxy)pyridin-2-yl)-2,5-difluorobenzyl)-1-(4,4-dimethyltetrahydrofuran-3-yl)-1H-benzo[d]imidazole-6-carboxylic acid], the midpoint of the response, the EC50, lay at 0.527 nM.

`CC1(C)COC[C@H]1n1c(Cc2cc(F)c(-c3cccc(OCc4cc(F)c(F)cc4Cl)n3)cc2F)nc2ccc(C(=O)O)cc21` [Example 454, (S)-2-(4-(6-((2-chloro-4,5-difluorobenzyl)oxy)pyridin-2-yl)-2,5-difluorobenzyl)-1-(4,4-dimethyltetrahydrofuran-3-yl)-1H-benzo[d]imidazole-6-carboxylic acid]: the EC50 was 0.477 nM.

A word on the EC50: it is the concentration needed to bring the measured effect to its halfway point. Low readings indicate an effect from little substance, high ones a need for much substance.
